Source: patent publication US8637511B2, “Aminopyrimidines useful as kinase inhibitors” (Vertex Pharmaceuticals Incorporated, priority 2005, dated 2014)

What follows are compounds tested against T1, human Itk kinase (Homo sapiens, UniProt Q08881) (assay: Itk inhibition assay: radioactivity-based assay). Settings: Ki(app).
T1 sequence (Q08881 1-620): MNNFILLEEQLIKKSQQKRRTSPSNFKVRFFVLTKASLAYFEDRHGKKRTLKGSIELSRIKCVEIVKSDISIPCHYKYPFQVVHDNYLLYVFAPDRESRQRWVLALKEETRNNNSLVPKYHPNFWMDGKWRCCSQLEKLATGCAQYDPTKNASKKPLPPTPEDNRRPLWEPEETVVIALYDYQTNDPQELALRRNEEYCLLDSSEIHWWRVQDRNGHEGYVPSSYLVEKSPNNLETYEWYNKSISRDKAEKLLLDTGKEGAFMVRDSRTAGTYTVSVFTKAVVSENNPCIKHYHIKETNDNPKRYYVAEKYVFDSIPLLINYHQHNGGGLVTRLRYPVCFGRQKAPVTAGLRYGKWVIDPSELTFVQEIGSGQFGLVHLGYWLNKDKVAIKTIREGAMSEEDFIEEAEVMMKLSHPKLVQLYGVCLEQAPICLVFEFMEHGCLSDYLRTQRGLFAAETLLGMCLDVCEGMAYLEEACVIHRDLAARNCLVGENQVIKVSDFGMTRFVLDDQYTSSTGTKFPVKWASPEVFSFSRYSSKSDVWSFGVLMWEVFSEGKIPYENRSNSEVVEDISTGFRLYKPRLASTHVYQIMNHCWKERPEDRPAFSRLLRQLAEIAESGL
Type: biochemical
Outline: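 50 nM Itk with 3 μM SAM68 Δ332-443 peptide and 7.5 μM [γ-33P]ATP in MOPS pH 7.0, MgCl2, 25° C; compound (top 50 μM final, 2-fold dilutions, 2% DMSO) preincubated 10 min, reaction 10 min. Phosphocellulose filter capture and scintillation counting; Ki(app) by non-linear regression of initial rates.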

SMILES	Ki
Cc1cc(Nc2cc(N3CC(C)(O)C3)nc(Sc3ccc(NC(=O)c4ccccc4Cl)cc3)n2)[nH]n1 [Compound 50]	≤ 100 nM
Cc1cc(Nc2cc(N3CC(OC(C)C)C3)nc(Sc3ccc(NC(=O)c4ccccc4Cl)cc3)n2)n[nH]1 [Compound 38]	≤ 100 nM
CCOC1CN(c2cc(Nc3cc(C)[nH]n3)nc(Sc3ccc(NC(=O)c4ccccc4Cl)cc3)n2)C1 [Compound 37]	≤ 100 nM
CCC(=O)Nc1ccc(Sc2nc(Nc3cc(C)n[nH]3)cc(N3CC(N4CCOCC4)C3)n2)cc1 [Compound 68]	100 to 1000 nM
CCC(=O)Nc1ccc(Sc2nc(Nc3cc(C)n[nH]3)cc(N3CC(OC(C)(C)C)C3)n2)cc1 [Compound 67]	100 to 1000 nM
CC(C)(C)c1cc(Nc2cc(N3CCC3)nc(Sc3ccc(NC(=O)c4ccccc4Cl)cc3)n2)n[nH]1 [Compound 69]	1000 to 2000 nM
COC1(C)CN(c2cc(Nc3cc(C)n[nH]3)nc(Sc3ccc(NC(=O)c4ccccc4Cl)cc3)n2)C1 [Compound 51]	≤ 100 nM
Cc1cc(Nc2cc(N3CCC3)nc(Sc3ccc(NC(=O)c4cnccc4C(F)(F)F)cc3)n2)[nH]n1 [Compound 59]	100 to 1000 nM
Cc1cc(Nc2cc(N3CCC3)nc(Sc3ccc(NC(=O)Cc4ccccc4Cl)cc3)n2)[nH]n1 [Compound 57]	100 to 1000 nM
COCc1cc(Nc2cc(N3CCC3)nc(Sc3ccc(NC(=O)c4ccccc4Cl)cc3)n2)n[nH]1 [Compound 82]	100 to 1000 nM
